From publication PMC12052742, “Engineering a newly identified alcohol dehydrogenase from Sphingobium Sp. for efficient utilization of nicotinamide cofactors biomimetics” (Bioresources and Bioprocessing, 2025)

Experiments:
Assay type in all cases: biochemical, Sphingobium sp. SYK-6
SpADH2 [1] = test: Cofactor spectrum of syringyl alcohol oxidation (HPLC specific activity), WT; conditions: 1a 5 mM, cofactor 7.5 mM, pH 7.5, 30℃; for utilization of the tsNCB by SpADH2 (in words) / activity of SpADH2 with the tsNCB as cofactor: 5 µg SpADH2, 1 h; for decrease in activity compared with NAD^+ as cofactor: 0.05 µg SpADH2
Experimental: Fig. 2 Cofactor spectrum of syringyl alcohol oxidation catalyzed by SpADH2. The darkness of the background color for each cofactor stands for the activity of SpADH2 utilizing various cofactors. (a) NAD(P) ^+ and NMN^+ are shown in purple background. (b) tsNCBs are shown in cyan background. The evaluation of cofactor spectrum of SpADH2 was carried out under following conditions: 50 mM PBS buffer (pH 7.5) and 30℃, with 1a (5 mM) as substrate and different cofactors (7.5 mM) as cofactor. For NAD(P)^+ and NMN^+, 0.05 µg SpADH2 was added, and for tsNCBs, 5 µg SpADH2 was added. The results were analyzed by HPLC after 1 h reaction
(§1) Specific activity of SpADH2 in cofactor spectrum study was determined by HPLC analysis. PBS (pH 7.5) buffer was pre-heated at 30°C for 15 min. For NAD(P)^+ and NMN^+, 0.05 µg SpADH2 was added to PBS buffer (100 µL). For tsNCBs, 5 µg SpADH2 was added. A final concentration of 7.5 mM cofactor was added to the reaction mixture. Finally, a final concentration of 5 mM substrate was added to start the reaction. The reactions were conducted at 30°C.
(§2) One unit of enzyme activity is defined as the amount of enzyme required to form 1 µmol 1b per minute at pH 7.5 and 30°C. Same reaction without cofactor was used as a blank control.

SpADH2 [2] = test: Preliminary evaluation of NCB usage in oxidation of syringyl alcohol (HPLC); conditions: preliminary assay: 1a 1 mM, NCB 10 mM, pH 7.0, 30℃, 1 h
Experimental: Sphingobium sp. SYK-6 belongs to genus Sphingomonas, and a search in UniProtKB identified 19 ADHs from this strain, including 5 PQQ-dependent and the remaining NAD^+/NADP^+-dependent enzymes. Two sequences annotated as aryl-alcohol dehydrogenases (SLG_34580 and SLG_24930) (Table. S1) were selected for heterologous expression (Fig. S1) and named SpADH1 and SpADH2, respectively. Their ability to utilize NCBs was assessed by oxidation of syringyl alcohol (1a) to produce syringaldehyde (1b) (Fig. 1a).
Fig. 1 (a) Reaction scheme of SpADH2-catalyzed oxidation of syringyl alcohol. (b) Specific activity of SpADH2 toward four NCBs. The evaluation of NCBs usage by SpADH2 was carried out under following conditions: 50 mM PBS buffer (pH 7.0) and 30℃, with 1a (1 mM) as substrate and 4 typical NCBs (10 mM) as cofactor. A total of 0.1 mg/mL enzyme was added to a 200 µL reaction mixture, and was analyzed by HPLC after 1 h reaction
Reaction samples were analyzed using Agilent 1260 Infinity II LC system under reversed phase condition. Column: Agilent C18 column. Analytical conditions for 1a and 1b: mobile phase: 50% water: 50% acetonitrile. The retention time for standard product 1b was 3.27 min, under flow rate of 1 mL·min^− 1and temperature of 30°C (Fig. S4).

SpADH2 [3] = test: Substrate spectrum (spectrophotometric specific activity, fluorescent probe); conditions: substrate 5 mM, 1 h; for specific activity of SpADH2 toward the substrate: cofactor NAD^+ 2 mM, 0.05 µg SpADH2, pH 7.5, 30℃; for substrate preference of SpADH2 (in words): cofactor p-BANA^+ 7.5 mM, 5 µg SpADH2, pH 7.5, 30℃
Experimental: Fig. 3 Substrate spectrum of SpADH2 utilizing (a) NAD^+ and (b) p-BANA^+. The darkness of the background color for each substrate stands for the activity of SpADH2 with NAD^+ (purple) or p-BANA^+ (cyan) as cofactor. The evaluation of substrate spectrum of SpADH2 was carried out under following conditions: 50 mM PBS buffer (pH 7.5) and 30℃, with 1a (5 mM) as substrate. For NAD^+(2 mM), 0.05 µg SpADH2 was added, and for p-BANA^+(7.5 mM), 5 µg SpADH2 was added. After 1 h, reactions were visualized by 0.2 mM florescent probes (2-[2-(1,4-dihydro-1-methyl-3-quinolinyl)ethenyl]-1,3,3-trimethyl-3H-indolium)
Specific activity of SpADH2 in substrate spectrum study was measured spectrophotometrically. PBS (pH 7.5) buffer was pre-heated at 30°C for 15 min. For NAD^+, 0.05 µg SpADH2 was added to the PBS buffer (100 µL), and a final concentration of 2 mM NAD^+ was added. For tsNCBs cofactor p-BANA^+, 5 µg SpADH2 and a final concentration of 7.5 mM p-BANA^+ was added. The mixture was carried out in a 96-well microplate, and a final concentration of 5 mM substrate was added to start the reaction. The microplate was incubated in 30°C for 1 h. Florescent probes (2-[2-(1,4-dihydro-1-methyl-3-quinolinyl)ethenyl]-1,3,3-trimethyl-3H-indolium) in a final concentration of 0.2 mM (100 µL) was added (Scheme S1), and the microplate was placed in a microplate reader immediately for measurement under 537 nm (Fomin et al. [2016]).
One unit of enzyme activity is defined as the amount of enzyme required to form 1 µmol of reduced florescent probes per minute at pH 7.5 and 30°C. Each reaction was repeated in triplet. Same reaction without substrate was used as a blank control. The molar absorbance coefficient (ε) was detected as […] with NADH as the reduced cofactor and 60,801 µM^− 1·cm^− 1 with p-BANAH as the reduced cofactor.

SpADH2 variant A290I = test: Cofactor spectrum (HPLC specific activity), variant A290I; conditions: 1a 5 mM, cofactor 7.5 mM, pH 7.5, 30℃, 5 µg enzyme
Experimental: (§3) Fig. 8 Cofactor spectrums of SpADH2 and its variants. The darkness of color for each cofactor stands for the activity. For each cofactor cube, top left: WT, top right: H43L, bottom left: A290I, bottom right: H43L/A290I. (a) Natural cofactors and NMN^+ are shown in purple. (b) tsNCBs are shown in cyan. The evaluation of cofactor spectrum was carried out under following conditions: 50 mM PBS buffer (pH 7.5) and 30℃, with 1a (5 mM) as substrate and different cofactors (7.5 mM) as cofactor. For NAD(P)^+ and NMN^+, 0.05 µg enzyme was added, and for tsNCBs, 5 µg enzyme was added. The results were analyzed by HPLC after 1 h reaction
as §1, §2

[4] = tested on: SpADH2 variants (H43L, A290I, H43L/A290I); test: Cofactor spectrum (HPLC specific activity), all variants together; conditions: 1a 5 mM, cofactor 7.5 mM, pH 7.5, 30℃
Experimental: as §3, §1, §2

Cc1ccccc1C[n+]1cccc(C(N)=O)c1 [o-BMNA^+, ortho-3-carbamoyl-1-(2-methylbenzyl)pyridin-1-ium]
utilization of the tsNCB by SpADH2 (in words) (SpADH2 [1]): No detectable activity

NC(=O)c1ccc[n+](Cc2ccccc2)c1 [BNA^+, 1-benzyl-3-carbamoylpyridin-1-ium]
utilization of the NCB by SpADH2 (in words) (SpADH2 [2]): Appreciable activity

OCc1ccsc1 [3-thiophenemethanol]
specific activity of SpADH2 toward the substrate (SpADH2 [3]): 4.78 U/mg
substrate preference of SpADH2 (in words) (SpADH2 [3]): No significant preference

NC(=O)c1ccc[n+](Cc2cccc([N+](=O)[O-])c2)c1 [m-BNNA^+, meta-3-carbamoyl-1-(3-nitrobenzyl)pyridin-1-ium]
utilization of the tsNCB by SpADH2 (in words) (SpADH2 [1]): not effectively utilized
utilization of the tsNCB (in words) (SpADH2 variant A290I): capable of utilizing

NC(=O)c1ccc[n+](Cc2ccccc2[N+](=O)[O-])c1 [o-BNNA^+]
activity of SpADH2 with the tsNCB as cofactor (SpADH2 [1]): 1.92 U/g
utilization of the tsNCB (in words) (SpADH2 variant A290I): capable of utilizing

NC(=O)c1ccc[n+](Cc2cccc(C(=O)O)c2)c1 [m-BANA^+, meta-3-carbamoyl-1-(3-carboxybenzyl)pyridin-1-ium]
catalytic activity with the tsNCB as cofactor (SpADH2 variant A290I; 1 h): 118.11 U/g
catalytic activity of all variants with the cofactor (in words) [4]: highest activity

NC(=O)c1ccc[n+](Cc2ccc([N+](=O)[O-])cc2)c1 [p-BNNA^+]
activity of SpADH2 with the tsNCB as cofactor (SpADH2 [1]): 2.25 U/g
utilization of the tsNCB (in words) (SpADH2 variant A290I): capable of utilizing

NC(=O)c1ccc[n+]([C@@H]2O[C@H](COP(=O)([O-])O)[C@@H](O)[C@H]2O)c1 [NMN^+, nicotinamide mononucleotide, reference compound]
decrease in activity compared with NAD^+ as cofactor (SpADH2 [1]): roughly 50%
catalytic activity of all variants with the cofactor (in words) [4]: relatively lower catalytic activity

OCc1ccccc1 [benzyl alcohol]
specific activity of SpADH2 toward the substrate (SpADH2 [3]): 4.71 U/mg
substrate preference of SpADH2 (in words) (SpADH2 [3]): No significant preference

Cc1ccc(C[n+]2cccc(C(N)=O)c2)cc1 [p-BMNA^+, para-3-carbamoyl-1-(4-methylbenzyl)pyridin-1-ium]
utilization of the tsNCB by SpADH2 (in words) (SpADH2 [1]): No detectable activity

COc1cc(CO)cc(OC)c1O [syringyl alcohol]
substrate preference of SpADH2 (in words) (SpADH2 [3]): optimal substrate

NC(=O)c1ccc[n+](Cc2ccccc2Br)c1 [o-BBrNA^+]
activity of SpADH2 with the tsNCB as cofactor (SpADH2 [1]): 1.3 U/g

NC(=O)c1ccc[n+]([C@@H]2O[C@H](COP(=O)(O)OP(=O)([O-])OC[C@H]3O[C@@H](n4cnc5c(N)ncnc54)[C@H](OP(=O)(O)O)[C@@H]3O)[C@@H](O)[C@H]2O)c1 [NADP^+, reference compound]
decrease in activity compared with NAD^+ as cofactor (SpADH2 [1]): roughly 50%
catalytic activity of all variants with the cofactor (in words) [4]: relatively lower catalytic activity
